{"source": "patent US8134010B2", "about": "“Thiazole-based nitric oxide donors having aryl substituent(s) and uses thereof” (priority 2004, dated 2012)", "key": {"[1]": {"tested_on": "c-GMP in slices of thoracic aorta of rats", "assay": "Cyclic-GMP measurement in aortic rat tissue (radioimmunoassay)", "type": "cell-based", "description": "GTN (10^−6 M) was added to the chamber and, 1 minute after exposure to the drug, rings (usually 3-5) were taken, wrapped with aluminum foil and immediately frozen in liquid nitrogen for storage. Control sample group was treated with the vehicle solution only. At the time of analysis, rings were thawed, blotted over a dry gauzed and weighted. A known weight of tissue was homogenized in 2 ml ice-cold modified Hank's balanced salt solution containing (in gram/liter) NaCl 8; KCl 0.4; glucose 1; KH2PO4 0.06; Na2HPO4 0.047; Phenol red 0.017 and further containing 25 mM EDTA (disodium salt). The homogenate was centrifuged at 4000 g (force units) for 10 minutes at 2-4° C. and the supernatant was thereafter transferred into fresh pre-cooled test tube containing 1 ml of acetonitrile. The tubes were vortex mixed for a few seconds and subsequently centrifuged at 4000 g for 5 minutes at 2-4° C., to remove the precipitated protein. Each supernatant was transferred into a clean test tube and evaporated to dryness under a stream of nitrogen at 55° C. The dry residue was reconstituted with 10 volumes of Tris-EDTA buffer pH 7.5 (0.05 M Tris containing 4 mM EDTA). Aliquots of 100 μl of the reconstituted solution in duplicate were used for c-GMP measurements using Amersham RIA kit, as is described in Haj-Yehia & Benet [Pharmacology, 1995, 273, 1, pp. 94-100]. Standard curves were plotted with six concentrations (0, 0.5, 1, 2, 4 and 8 pmoles of c-GMP per tube).\nThe NO-tolerance effect of GTN and NO-donor compounds according to the present invention was measured by following the production of c-GMP in slices of thoracic aorta of rats. Thus, the production of c-GMP was measured as described in the methods section above for the reference NO-donor compound GTN, and for the NO-donors of the present invention Pet-2, Pet-3, Pet-7, Pet-8, Pet-10, Pet-12, Pet-24, Pet-59, Pet-106, Pet-107, Pet-120, Pet-147, Pet-149, Pet-152, Pet-154 and Pet-155."}, "isolated rat aorta": {"tested_on": "isolated rat aorta", "assay": "In vitro induction of tolerance to NO releasing compounds (vasorelaxation of pre-exposed aortic rings)", "type": "cell-based", "details": "rings pre-treated with epinephrine and then with 0.44 mM of the same compound", "description": "Aortic rings were prepared as described hereinabove, and were exposed to 0.44 mM GTN (vehicle was water:ethanol:propyleneglycol at proportional ratio of 1:1:1) for 1 hour before CCRC construction, to thereby induce tolerance to nitroglycerine. At the end of the tolerance induction period, rings were thrice washed with the path buffer (Krebs-bicrbonate) every 15 minutes for the following hour and then CCRC for vasorelaxation on GTN-induced tolerance rings were constructed for GTN (pretreated versus untreated rings, FIG. 15), in order to verify the ability to induce and measure GTN tolerance induction in vitro\nAttempted induction of tolerance to the NO-donating compounds of the present invention was performed under the same conditions as for GTN. Thus, in an exemplary experiment, rings were exposed to 0.44 mM solution of Pet-3 in the attempt to induce tolerance for Pet-3. CCRC were then measured for the vasorelaxing effect of Pet-3 on a group of rings which were pre-exposed to Pet-3 as to induce tolerance to Pet-3, and for an untreated control group. The above protocol was repeated with Pet-2, Pet-7, Pet-8, Pet-12, Pet-24, Pet-43, Pet-149 and Pet-152."}}, "note": "Entries after “also recorded” stand apart in the source; their conditions may differ."}
{"molecule": "Cc1nc(-c2ccc([N+](=O)[O-])cc2)sc1CCO[N+](=O)[O-]", "note": "[Pet-120, 4-Methyl-5-(2-nitrooxy-ethyl)-2-(4-nitro-phenyl)-thiazole]", "values": [{"measurement": "accumulation of cyclic-GMP as compared with GTN", "setting": "[1]; isolated rat aorta, radioimmunoassay", "result": "increased levels of cGMP"}, {"measurement": "cGMP Post-infusion", "setting": "[1]; rat thoracic aorta, post-infusion (repeated treatment)", "result": "133 ± 12", "unit": "pmol/g tissue"}, {"measurement": "tolerance induction in vitro (vasorelaxation, pre-treated versus control rings)", "setting": "isolated rat aorta", "result": "absence of tolerance induction; also recorded: lack of tolerance inducement"}]}
